For 50 compounds, efficacy and log p results are on record in patent publication US20180282323A1, “Mesoionic imidazole derivatives as insecticides” (BAYER CROPSCIENCE AKTIENGESELLSCHAFT, priority 2015, published 2018).

For one data set, the system named is Myzus persicae. The data set is described as follows: Myzus persicae oral test. Format: in vivo. Conditions: application rate 20 ppm, oral uptake through parafilm, after 5 days. As to the method: Myzus persicae—Oral Test Solvent: 100 parts by weight of acetone
To produce an appropriate active ingredient formulation, 1 part by weight of active ingredient is dissolved with the stated parts by weight of solvent and made up with water until the desired concentration is attained.
50 μl of the active ingredient formulation are transferred into microtitre plates and made up to a final volume of 200 μl with 150 μl of IPL41 insect medium (33%+15% sugar). Subsequently, the plates are sealed with parafilm, which a mixed population of green peach aphids (Myzus persicae) within a second microtitre plate is able to puncture and imbibe the solution through it.
After 5 days, the efficacy in % is determined. 100% means that all the aphids have been killed; 0% means that no aphids have been killed.

A short description of data set [1]: log P by HPLC on reversed-phase column (EEC directive 79/831 Annex V.A8). Format: physicochemical. Conditions: HPLC on reversed-phase column (footnote a). The protocol: a) The determination of the [M+H]^+ by LC-MS in the acidic range was effected at pH 2.7, with acetonitrile (containing 0.1% formic acid) and water as eluents; linear gradient from 10% acetonitrile to 95% acetonitrile, instrument: Agilent 1100 LC system, Agilent MSD system, HTS PAL.
The log P values reported in the tables and preparation examples above were determined in accordance with EEC directive 79/831 Annex V.A8 by HPLC (High Performance Liquid Chromatography) using a reversed-phase column (C18). Temperature 43° C.

`O=C(COCc1ccccc1)c1c([O-])n(Cc2cncnc2)c2cccc[n+]12` [Example I-1-059] showed an efficacy with Myzus persicae of 100%. The same compound showed a log p in data set [1] of 1.44.
The matching figures for `N#Cc1cnn(CC(=O)c2c([O-])n(Cc3ccc(Cl)nc3)c3cccc[n+]23)c1` [Example I-1-060]: 100% and 1.55.
Compound `O=C(Cn1ccnn1)c1c([O-])n(Cc2cnc(Cl)s2)c2cccc[n+]12` [Example I-1-064] displayed an efficacy in the data set with Myzus persicae of 100%. In data set [1], this compound returned a log p of 1.18.
Regarding `N#Cc1cnn(CC(=O)c2c([O-])n(Cc3cncnc3)c3cccc[n+]23)c1` [Example I-1-065], the efficacy in the data set on Myzus persicae was 100%. In data set [1], this compound came in with a log p of 0.73.
`O=C(Cn1cccn1)c1c([O-])n(Cc2cncnc2)c2cccc[n+]12` [Example I-1-066] showed an efficacy in the data set with Myzus persicae of 90%. For the same compound, in data set [1], the log p worked out at 0.56.
Regarding `CCN(CC(=O)c1c([O-])n(Cc2ccc(Cl)nc2)c2cccc[n+]12)C(C)=O` [Example I-1-071], the efficacy in the data set on Myzus persicae is listed as 90%. The compound further displayed a log p in data set [1] of 1.4.
In the data set on Myzus persicae, `COC(=O)COCC(=O)c1c([O-])n(Cc2cnc(Cl)s2)c2cccc[n+]12` [Example I-1-075] came in with an efficacy of 100%. This compound showed a log p in data set [1] of 1.41.
Turning to `CSCC(=O)c1c([O-])n(Cc2cncnc2)c2cccc[n+]12` [Example I-1-077], in the data set on Myzus persicae, the efficacy is 100%. In addition, the log p in data set [1] stood at 0.79.
In the same order, the values of `O=C(COc1ccccc1Cl)c1c([O-])n(Cc2cnc(Cl)s2)c2cccc[n+]12` [Example I-1-078] are 90% and 2.77.
`CCOCC(=O)c1c([O-])n(Cc2ccc(Cl)nc2)c2cc(C(F)(F)F)cc[n+]12` [Example I-1-079] registered an efficacy in the data set on Myzus persicae of 90%. The compound also gave a log p in data set [1] of 2.17.
On to `O=C(COc1ccc(Cl)nc1)c1c([O-])n(Cc2cnc(Cl)s2)c2cccc[n+]12` [Example I-1-084], for which the efficacy in the data set on Myzus persicae amounted to 100%. This compound also came in with a log p in data set [1] of 2.17.
As to `O=C(COc1ccccn1)c1c([O-])n(Cc2cnc(Cl)s2)c2cccc[n+]12` [Example I-1-088], the efficacy with Myzus persicae is listed as 100%. The log p in data set [1] came to 1.32.
Consider `Cc1ccc2n(Cc3ccc(Cl)nc3)c([O-])c(C(=O)CCl)[n+]2c1` [Example I-1-091], for which, in the data set with Myzus persicae, the efficacy was found to be 100%. For the same compound, in data set [1], the log p is listed as 1.87.
As to `Cc1ccc[n+]2c(C(=O)Cn3cncn3)c([O-])n(Cc3cnc(Cl)s3)c12` [Example I-1-096], the efficacy with Myzus persicae came to 100%. The log p in data set [1] is 1.31.
For the compound `Cc1cccc2n(Cc3ccc(Cl)nc3)c([O-])c(C(=O)CCl)[n+]12` [Example I-1-098], in the data set with Myzus persicae, the efficacy is on record as 100%. Also, the log p in data set [1] is 1.74.
In turn, `Cc1cccc2n(Cc3ccc(Cl)nc3)c([O-])c(C(=O)Cn3cccn3)[n+]12` [Example I-1-103] registered an efficacy with Myzus persicae of 100%. This compound also returned a log p in data set [1] of 1.47.
For the compound `O=C(CCl)c1c([O-])n(Cc2cnc(Cl)s2)c2ccc(Cl)c[n+]12` [Example I-1-108], the efficacy in the data set on Myzus persicae was 100%. This compound also registered a log p in data set [1] of 2.2.
Take `COCC(=O)c1c([O-])n(Cc2cncc(Cl)c2)c2cccc[n+]12` [Example I-1-109]: the efficacy in the data set with Myzus persicae is 100%. This compound returned a log p in data set [1] of 1.15.
The compound `O=C(CCl)c1c([O-])n(Cc2ccc(Cl)nc2)c2c(F)cc(F)c[n+]12` [Example I-1-110] displayed an efficacy with Myzus persicae of 100%. Besides, the log p in data set [1] turned out to be 1.96.
`CCCOCC(=O)c1c([O-])n(Cc2cnc(Cl)s2)c2ccc(Cl)c[n+]12` [Example I-1-117] returned an efficacy in the data set with Myzus persicae of 100%. In data set [1], the log p is reported as 2.41.
Turning to `COCC(=O)c1c([O-])n(Cc2cnc(Cl)s2)c2ccc(Cl)c[n+]12` [Example I-1-118], the efficacy with Myzus persicae was determined as 100%. This compound yielded a log p in data set [1] of 1.69.
In turn, `CCOCC(=O)c1c([O-])n(Cc2cnc(Cl)s2)c2ccc(Cl)c[n+]12` [Example I-1-119] yielded an efficacy with Myzus persicae of 100%. In data set [1], this compound returned a log p of 1.96.
Regarding `COC(=O)c1c([O-])n(Cc2cnc(Cl)s2)c2cccc(Cl)[n+]12` [Example I-1-121], in the data set on Myzus persicae, the efficacy came to 100%. In data set [1], the log p was determined as 1.32.
For the compound `COCC(=O)c1c([O-])n(Cc2cnc(OC)s2)c2cc(Cl)cc[n+]12` [Example I-1-124], the efficacy with Myzus persicae was 100%. The compound further returned a log p in data set [1] of 1.51.
For the compound `Cc1ccc2n(Cc3cnc(Cl)s3)c([O-])c(C(=O)CCl)[n+]2c1` [Example I-1-125], the efficacy with Myzus persicae was 90%. Also, the log p in data set [1] is listed as 1.99.
With `Cc1cc[n+]2c(C(=O)CCl)c([O-])n(Cc3cnc(Cl)s3)c2c1` [Example I-1-126], the efficacy with Myzus persicae was 90%. This compound also displayed a log p in data set [1] of 1.96.
The matching figures for `CC(C)NC(=O)c1c([O-])n(Cc2cnc(Cl)s2)c2cccc[n+]12` [Example I-1-131]: 100% and 1.95.
Consider `O=C(NC1CC1)c1c([O-])n(Cc2ccc(Cl)nc2)c2cccc[n+]12` [Example I-1-133], for which the efficacy in the data set with Myzus persicae is listed as 90%. The compound also had a log p in data set [1] of 1.85.
`O=C(NC1CCCC1)c1c([O-])n(Cc2cnc(Cl)s2)c2cccc[n+]12` [Example I-1-138]: the efficacy with Myzus persicae was found to be 100%. In data set [1], the log p is recorded as 2.35.
Compound `CC(NC(=O)c1c([O-])n(Cc2cnc(Cl)s2)c2cccc[n+]12)c1ccc(Cl)cc1` (stereo not shown) [Example I-1-142] had an efficacy in the data set with Myzus persicae of 100%. For the same compound, in data set [1], the log p was 3.13.
With `O=C(Nc1ccc(Cl)nc1)c1c([O-])n(Cc2cnc(Cl)s2)c2cccc[n+]12` [Example I-1-146], the efficacy with Myzus persicae is 100%. In data set [1], this compound showed a log p of 2.55.
`CC(C)(C)NC(=O)c1c([O-])n(Cc2cnc(Cl)s2)c2cccc[n+]12` [Example I-1-151] returned an efficacy in the data set on Myzus persicae of 100%. In data set [1], this compound registered a log p of 2.39.
For `COC(=O)c1c([O-])n(Cc2ccc(Cl)nc2)c2ccc(F)c[n+]12` [Example I-1-155], the efficacy with Myzus persicae turned out to be 100%. The log p in data set [1] is listed as 1.43.
The matching figures for `COC(=O)c1c([O-])n(Cc2ccc(Cl)nc2)c2cccc(C)[n+]12` [Example I-1-157]: 100% and 1.27.
In the data set on Myzus persicae, `COC(=O)c1c([O-])n(Cc2cncc(Cl)c2)c2cccc[n+]12` [Example I-1-158] had an efficacy of 100%. In data set [1], this compound displayed a log p of 1.15.
The matching figures for `Cc1ccc[n+]2c(C(=O)CCl)c([O-])n(Cc3ccc(Cl)nc3)c12` [Example I-1-159]: 100% and 1.78.
In the same order, the values of `COC(=O)c1c([O-])n(Cc2ccc(Cl)nc2)c2c(C)ccc[n+]12` [Example I-1-160] are 100% and 1.39.
With `COCC(=O)c1c([O-])n(Cc2ccc(Cl)nc2)c2c(Cl)ccc[n+]12` [Example I-1-164], the efficacy in the data set on Myzus persicae is recorded as 90%. This compound returned a log p in data set [1] of 1.59.
In the data set with Myzus persicae, `COCC(=O)c1c([O-])n(Cc2ccc(Cl)nc2)c2cccc(C)[n+]12` [Example I-1-166] returned an efficacy of 100%. This compound registered a log p in data set [1] of 1.33.
`COCC(=O)c1c([O-])n(Cc2ccc(Cl)nc2)c2ccc(C)c[n+]12` [Example I-1-167] registered an efficacy in the data set with Myzus persicae of 100%. The compound further yielded a log p in data set [1] of 1.48.
The compound `O=C(CCl)c1c([O-])n(Cc2cnc(Cl)c(Cl)c2)c2cccc[n+]12` [Example I-1-168] had an efficacy in the data set with Myzus persicae of 100%. Moreover, the log p in data set [1] is 2.11.
Consider `O=C(NC1CC1)c1c([O-])n(Cc2ccc(Cl)nc2)c2ccc(F)c[n+]12` [Example I-1-170], for which the efficacy in the data set on Myzus persicae was 100%. For the same compound, in data set [1], the log p is recorded as 1.79.
With `Cc1cccc2n(Cc3ccc(Cl)nc3)c([O-])c(C(=O)NC3CC3)[n+]12` [Example I-1-171], the efficacy in the data set on Myzus persicae is 100%. Also, the log p in data set [1] was determined as 1.05.
In the same order, the values of `N#Cc1ccc[n+]2c(C(=O)CCl)c([O-])n(Cc3ccc(Cl)nc3)c12` [Example I-1-172] are 90% and 1.78.
`COCC(=O)c1c([O-])n(Cc2cnc(OC)s2)c2ccc(C)c[n+]12` [Example I-1-173] returned an efficacy with Myzus persicae of 100%. Besides, the log p in data set [1] is 1.35.
In turn, `COCC(=O)c1c([O-])n(Cc2cnc(Cl)s2)c2ccc(C)c[n+]12` [Example I-1-174] came in with an efficacy with Myzus persicae of 100%. Further, in data set [1], the log p is 1.52.
In the data set on Myzus persicae, `CCOCC(=O)c1c([O-])n(Cc2cnc(Cl)s2)c2ccc(C)c[n+]12` [Example I-1-175] showed an efficacy of 100%. The log p in data set [1] amounted to 1.78.
For the compound `CCOCC(=O)c1c([O-])n(Cc2cncc(Cl)c2)c2cccc[n+]12` [Example I-1-177], the efficacy with Myzus persicae is 100%. This compound registered a log p in data set [1] of 1.37.
Turning to `COCC(=O)c1c([O-])n(Cc2ccc(C(F)(F)F)nc2)c2cccc[n+]12` [Example I-1-180], the efficacy in the data set with Myzus persicae came out at 100%. The compound further had a log p in data set [1] of 1.49.
The compound `Cc1ccc[n+]2c(C(=O)NC3CC3)c([O-])n(Cc3ccc(Cl)nc3)c12` [Example I-1-181] returned an efficacy in the data set with Myzus persicae of 100%. Further, in data set [1], the log p was 1.75.
